Results reported in ChEMBL document CHEMBL1144151, “Two novel anti-emetic principles of Alpinia katsumadai” (1999).

Legend:
Type in all cases: functional
Details in all cases: route intraperitoneal
[1] = tested on: Gallus gallus; test: Anti-emetic activity against copper sulfate-induced emesis in 4 days old chicks assessed as inhibition of number of retching reflexes at 50 mg/kg, ip measured 10 mins after copper sulfate challenge
[2] = tested on: Gallus gallus; test: Anti-emetic activity against copper sulfate-induced emesis in 4 days old chicks assessed as inhibition of number of retching reflexes at 10 mg/kg, ip measured 10 mins after copper sulfate challenge
[3] = tested on: Gallus gallus; test: Anti-emetic activity against copper sulfate-induced emesis in 4 days old chicks assessed as inhibition of number of retching reflexes at 20 mg/kg, ip measured 10 mins after copper sulfate challenge

Structure (SMILES)	inhibition in vivo at 50 mg/kg [1]	inhibition in vivo at 10 mg/kg [2]	inhibition in vivo at 20 mg/kg [3]
O=C(CCc1ccccc1)C[C@@H]1C[C@@H](c2ccccc2)c2c(cc(/C=C/c3ccccc3)oc2=O)O1 [KATSUMADAIN A]	50.2%	8.8%	14.5%
O=C(CCc1ccccc1)CC(/C=C/c1ccccc1)c1c(O)cc(/C=C/c2ccccc2)oc1=O (centres undefined) [KATSUMADAIN B]	41.4%	–	–
